Measured values as given in patent US9309198B2, “N-[3-(2-carboxyethyl)phenyl]piperidin-1-ylacetamide derivatives and use thereof as activators of soluble guanylate cyclase” (Bayer Pharma Aktiengesellschaft, priority 2012, dated 2016).

What was measured:
[1] = target: T1, soluble guanylate cyclase (sGC) (Rattus norvegicus, UniProt P20595); assay: Stimulation of sGC enzyme activity (PPi detection, luciferase luminescence); type: biochemical; conditions: for EC50: read-out: EC50 (half-maximal effective concentration), activating action at the sGC enzyme in vitro
T1 construct: made in house
T1 sequence (P20595 1-619): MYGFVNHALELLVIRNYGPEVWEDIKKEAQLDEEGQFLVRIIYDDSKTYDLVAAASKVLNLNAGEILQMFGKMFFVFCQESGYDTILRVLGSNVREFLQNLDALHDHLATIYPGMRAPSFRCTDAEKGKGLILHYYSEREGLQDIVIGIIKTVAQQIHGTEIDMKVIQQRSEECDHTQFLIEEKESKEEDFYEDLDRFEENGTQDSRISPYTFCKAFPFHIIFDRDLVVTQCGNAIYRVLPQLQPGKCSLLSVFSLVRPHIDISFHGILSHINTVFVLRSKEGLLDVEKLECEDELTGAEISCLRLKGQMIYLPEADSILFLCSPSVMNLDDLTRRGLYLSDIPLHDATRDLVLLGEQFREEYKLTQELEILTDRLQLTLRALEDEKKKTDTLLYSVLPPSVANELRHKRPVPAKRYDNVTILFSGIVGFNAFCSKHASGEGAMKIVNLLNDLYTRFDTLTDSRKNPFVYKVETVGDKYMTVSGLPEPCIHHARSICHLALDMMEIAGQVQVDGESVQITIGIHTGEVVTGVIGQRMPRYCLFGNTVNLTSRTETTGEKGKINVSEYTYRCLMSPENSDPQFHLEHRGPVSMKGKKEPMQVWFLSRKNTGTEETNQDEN
T1 sequence (P19686 1-690 partner): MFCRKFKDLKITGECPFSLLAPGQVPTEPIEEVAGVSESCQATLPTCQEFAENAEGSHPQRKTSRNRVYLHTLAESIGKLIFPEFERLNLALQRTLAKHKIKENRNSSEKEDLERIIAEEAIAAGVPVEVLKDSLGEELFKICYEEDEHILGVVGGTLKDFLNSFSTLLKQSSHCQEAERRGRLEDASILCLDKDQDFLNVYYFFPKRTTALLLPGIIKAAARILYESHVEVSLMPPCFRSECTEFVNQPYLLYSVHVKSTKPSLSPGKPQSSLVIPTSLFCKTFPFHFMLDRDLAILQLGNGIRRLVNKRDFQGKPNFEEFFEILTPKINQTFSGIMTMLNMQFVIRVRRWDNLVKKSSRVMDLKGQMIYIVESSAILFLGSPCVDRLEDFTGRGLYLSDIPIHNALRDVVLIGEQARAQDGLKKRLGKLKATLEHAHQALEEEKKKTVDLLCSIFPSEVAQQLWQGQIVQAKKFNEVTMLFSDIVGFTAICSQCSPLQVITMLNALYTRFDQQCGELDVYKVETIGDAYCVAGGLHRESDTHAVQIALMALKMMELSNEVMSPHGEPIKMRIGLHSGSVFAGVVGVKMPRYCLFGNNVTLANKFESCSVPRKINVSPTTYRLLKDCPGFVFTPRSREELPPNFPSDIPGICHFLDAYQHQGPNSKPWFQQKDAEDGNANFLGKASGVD
Method: B-3. Stimulation of sGC Enzyme Activity
Soluble guanylate cyclase (sGC) converts on stimulation GTP into cGMP and pyrophosphate (PPi). PPi is detected with the aid of the assay described below. The signal produced in the assay increases as the reaction progresses and serves as a measure of the sGC enzyme activity under the given stimulation.
To carry out the assay, 29 μl of enzyme solution [0-10 nM soluble guanylate cyclase (prepared according to Hönicka et al., J. Mol. Med. 77, 14-23 (1999)) in 50 mM TEA, 2 mM MgCl2, 0.1% BSA (fraction V), 0.005% Brij®, pH 7.5] are initially introduced into a microplate, and 1 μl of the substance to be tested (as a serially diluted solution in DMSO) is added. The mixture is incubated at room temperature for 10 min. Then 20 μl of detection mix [1.2 nM Firefly Luciferase (Photinus pyralis luciferase, Promega), 29 μM dehydroluciferin (prepared according to Bitler & McElroy, Arch. Biochem. Biophys. 72, 358 (1957)), 122 μM luciferin (Promega), 153 μM ATP (Sigma) and 0.4 mM DTT (Sigma) in 50 mM TEA, 2 mM MgCl2, 0.1% BSA (fraction V), 0.005% Brij®, pH 7.5] are added. The enzyme reaction is started by adding 20 μl of substrate solution [1.25 mM guanosine 5′-triphosphate (Sigma) in 50 mM TEA, 2 mM MgCl2, 0.1% BSA (fraction V), 0.005% Brij®, pH 7.5] and measured continuously in a luminometer. The extent of the stimulation by the substance to be tested can be determined relative to the signal of the unstimulated reaction.
The activation of haem-free guanylate cyclase is examined by addition of 25 μM of 1H-1,2,4-oxadiazolo[4,3-a]quinoxalin-1-one (ODQ) to the enzyme solution and subsequent incubation for 30 minutes and compared to the stimulation of the native enzyme.

[2] = target: T2, recombinant guanylate cyclase reporter cell line (sGC, CHO reporter cell) (Rattus norvegicus, UniProt P20595); assay: Effect on a recombinant guanylate cyclase reporter cell line (CHO reporter cell); type: cell-based
T2 construct: expressed in transfected cells; host or cells: CHO reporter cell line
T2 sequence (P20595 1-619): T1 sequence (P20595 1-619)
T2 sequence (P19686 1-690 partner): T1 sequence (P19686 1-690 partner)
Method: B-2. Effect on a Recombinant Guanylate Cyclase Reporter Cell Line The cellular activity of the compounds according to the invention is determined using a recombinant guanylate cyclase reporter cell line, as described in F. Wunder et al., Anal. Biochem. 339, 104-112 (2005).

[3] = target: T3, recombinant soluble guanylate cyclase (sGC), haem-free (Rattus norvegicus, UniProt P20595); assay: Stimulation of recombinant soluble guanylate cyclase (sGC) in vitro, haem-free enzyme; type: biochemical; conditions: n = 2
T3 construct: made in house
T3 sequence (P20595 1-619): T1 sequence (P20595 1-619)
T3 sequence (P19686 1-690 partner): T1 sequence (P19686 1-690 partner)
Method: (§1) B-1. Stimulation of Recombinant Soluble Guanylate Cyclase (sGC) In Vitro
The investigations on the stimulation of recombinant soluble guanylate cyclase (sGC) by the compounds according to the invention with and without sodium nitroprusside and with and without the haem-dependent sGC inhibitor 1H-1,2,4-oxadiazolo[4,3-a]quinoxalin-1-one (ODQ) are carried out by the method described in detail in the following literature reference: M. Hoenicka, E. M. Becker, H. Apeler, T. Sirichoke, H. Schroeder, R. Gerzer and J.-P. Stasch, “Purified soluble guanylyl cyclase expressed in a baculovirus/Sf9 system: Stimulation by YC-1, nitric oxide, and carbon oxide”, J. Mol. Med. 77 (1999), 14-23. Haem-free guanylate cyclase is obtained by adding Tween 20 to the sample buffer (final concentration 0.5%).
(§2) Activation of sGC by a test substance is stated as x-fold stimulation of basal activity.

[4] = target: T4, recombinant soluble guanylate cyclase (sGC), haem-containing (Rattus norvegicus, UniProt P20595); assay: Stimulation of recombinant soluble guanylate cyclase (sGC) in vitro, haem-containing enzyme; type: biochemical; conditions: for Stimulation (x-times) of haem-containing sGC, Basal: n = 2
T4 construct: made in house
T4 sequence (P20595 1-619): T1 sequence (P20595 1-619)
T4 sequence (P19686 1-690 partner): T1 sequence (P19686 1-690 partner)
Excerpt: as §1
Hoenicka, E. M. Becker, H. Apeler, T. Sirichoke, H. Schroeder, R. Gerzer and J.-P. Stasch, “Purified soluble guanylyl cyclase expressed in a baculovirus/Sf9 system: Stimulation by YC-1, nitric oxide, and carbon oxide”, J. Mol. Med. 77 (1999), 14-23. Haem-free guanylate cyclase is obtained by adding Tween 20 to the sample buffer (final concentration 0.5%).
as §2

Structure (SMILES): C[C@H]([C@H](C(=O)Nc1cc(CCC(=O)O)ccc1F)N1CCC(C2CC2)CC1)C(F)(F)F [Example 18]
- MEC (minimum effective concentration), activating action at the sGC enzyme in vitro [1]: 6.9 nM
- EC50 [1]: 540 nM
- MEC (minimum effective concentration), sGC-activating activity in the CHO reporter cell in vitro [2]: 30 nM

Structure (SMILES): C[C@H]([C@H](C(=O)Nc1cc(CC2(C(=O)O)CC2)ccc1Cl)N1CCC2(CC1)CC2)C(F)(F)F [Example 25, 1-(3-{[(2R,3R)-2-(6-Azaspiro[2.5]oct-6-yl)-4,4,4-trifluoro-3-methylbutanoyl]amino}-4-chlorobenzyl)cyclopropanecarboxylic acid]
- Stimulation (x-times) of haem-free sGC, Basal ([3]; 0.01 μM Example 25): 1.9 ± 0.8 x-times
- Stimulation (x-times) of haem-free sGC, Basal ([3]; 0.1 μM Example 25): 2.4 ± 0.8 x-times
- Stimulation (x-times) of haem-free sGC, Basal ([3]; 1.0 μM Example 25): 7.3 ± 3.6 x-times
- Stimulation (x-times) of haem-free sGC, Basal ([3]; 10 μM Example 25): 26.6 ± 7.3 x-times
- MEC (minimum effective concentration), activating action at the sGC enzyme in vitro [1]: 2.2 nM
- EC50 [1]: 15 nM
- Stimulation (x-times) of haem-containing sGC, +0.01 μM DEA/NO ([4]; 0.01 μM Example 25 + 0.01 μM DEA/NO): 11.4 ± 3.9 x-times
- Stimulation (x-times) of haem-containing sGC, +10 μM ODQ ([4]; 0.01 μM Example 25 + 10 μM ODQ): 2.3 ± 0.1 x-times
- Stimulation (x-times) of haem-containing sGC, Basal ([4]; 0.01 μM Example 25): 0.9 ± 0.2 x-times
- Stimulation (x-times) of haem-containing sGC, +0.01 μM DEA/NO ([4]; 0.1 μM Example 25 + 0.01 μM DEA/NO): 11.9 ± 4.2 x-times
- Stimulation (x-times) of haem-containing sGC, +10 μM ODQ ([4]; 0.1 μM Example 25 + 10 μM ODQ): 2.7 ± 0.2 x-times
- Stimulation (x-times) of haem-containing sGC, Basal ([4]; 0.1 μM Example 25): 0.9 ± 0.0 x-times
- Stimulation (x-times) of haem-containing sGC, +0.01 μM DEA/NO ([4]; 1.0 μM Example 25 + 0.01 μM DEA/NO): 12.0 ± 3.9 x-times
- Stimulation (x-times) of haem-containing sGC, +10 μM ODQ ([4]; 1.0 μM Example 25 + 10 μM ODQ): 10.5 ± 2.4 x-times
- Stimulation (x-times) of haem-containing sGC, Basal ([4]; 1.0 μM Example 25): 2.8 ± 0.4 x-times
- Stimulation (x-times) of haem-containing sGC, +0.01 μM DEA/NO ([4]; 10 μM Example 25 + 0.01 μM DEA/NO): 15.1 ± 2.9 x-times
- Stimulation (x-times) of haem-containing sGC, +10 μM ODQ ([4]; 10 μM Example 25 + 10 μM ODQ): 32.5 ± 5.4 x-times
- Stimulation (x-times) of haem-containing sGC, Basal ([4]; 10 μM Example 25): 8.6 ± 0.2 x-times
- Effect of combination with the NO donor DEA/NO on sGC stimulation ([4]; combination with DEA/NO, haem-containing sGC): no synergistic effect
- Effect of the haem-dependent sGC inhibitor ODQ on the activity of the sGC activator ([4]; with ODQ, haem-containing sGC): not blocked but, in contrast, even enhanced
- MEC (minimum effective concentration), sGC-activating activity in the CHO reporter cell in vitro [2]: 1 nM

Structure (SMILES): CCC1CCN([C@@H](C(=O)Nc2cc(CC3(C(=O)O)CC3)ccc2Cl)[C@@H](C)C(F)(F)F)CC1 [Example 26, 1-(4-Chloro-3-{[(2R,3R)-2-(4-ethylpiperidin-1-yl)-4,4,4-trifluoro-3-methylbutanoyl]amino}benzyl)cyclopropanecarboxylic acid]
- MEC (minimum effective concentration), activating action at the sGC enzyme in vitro [1]: 0.8 nM
- EC50 [1]: 10 nM
- MEC (minimum effective concentration), sGC-activating activity in the CHO reporter cell in vitro [2]: 1 nM

Structure (SMILES): CC1CCN([C@@H](C(=O)Nc2cc(C[C@H](C)C(=O)O)ccc2Cl)[C@@H](C)C(F)(F)F)CC1 [Example 27]
- MEC (minimum effective concentration), activating action at the sGC enzyme in vitro [1]: 10.5 nM
- EC50 [1]: 210 nM
- MEC (minimum effective concentration), sGC-activating activity in the CHO reporter cell in vitro [2]: 10 nM

Structure (SMILES): C[C@H]([C@H](C(=O)Nc1cc(C[C@H](C)C(=O)O)ccc1Cl)N1CCC(C(F)(F)F)CC1)C(F)(F)F [Example 34]
- MEC (minimum effective concentration), activating action at the sGC enzyme in vitro [1]: 10.5 nM
- EC50 [1]: 90 nM
- MEC (minimum effective concentration), sGC-activating activity in the CHO reporter cell in vitro [2]: 10 nM

Structure (SMILES): CC1CCN([C@@H](C(=O)Nc2cc(CC3(C(=O)O)CC3)ccc2Cl)[C@@H](C)C(F)(F)F)CC1 [Example 51, 1-(4-Chloro-3-{[(2R,3R)-4,4,4-trifluoro-3-methyl-2-(4-methylpiperidin-1-yl)butanoyl]amino}benzyl)cyclopropanecarboxylic acid]
- MEC (minimum effective concentration), activating action at the sGC enzyme in vitro [1]: 1.2 nM
- MEC (minimum effective concentration), sGC-activating activity in the CHO reporter cell in vitro [2]: 1 nM
